Where no end group is shown, it is not given here. A value given as a limit tells only on which side of the number the result lay.

This is an account of results in article PMC7340446, “Optimization of PTH/PTHrP Hybrid Peptides to Derive a Long‐Acting PTH Analog (LA‐PTH)” (JBMR Plus, 2020).

Series [1] is described as follows: Pharmacokinetics in normal rats, i.v., plasma peptide by ELISA. Format: in vivo, rat. Particulars: i.v. 10 nmol/kg, plasma with protease inhibitors, n = 4 (M‐PTH/PTHrP) or 3 (PTH(1–34)). As to the method:
For pharmacokinetic studies, plasma samples were prepared in the presence of protease inhibitors (aprotinin, leupeptin, EDTA). Plasma levels of PTH(1–34) were assessed by ELISA assay (Human PTH(1–34) Specific ELISA Kit; Immutopics Inc, San Clemente, CA, USA), and plasma levels of M‐PTH/PTHrP were assessed by ELISA assay (PTH‐RP 1–34 Human Enzyme Immunoassay Kit; Peninsula Laboratories International, San Carlos CA, USA) using M‐PTH/PTHrP peptides as standard solutions.
Figure 3 Pharmacodynamic and pharmacokinetic profiles of M‐PTH/PTHrP and PTH(1–34) in rats. (A) Effects of M‐PTH/PTHrP and PTH(1–34) on blood ionized Ca in TPTX rats by i.v. injection. M‐PTH/PTHrP and PTH(1–34) were injected intravenously in TPTX rats at the indicated doses, and blood samples were collected from the tail vein measured for ionized Ca; data are means ± SE; n = 5 or 3 (PTH(1–34)). *p < 0.05, **p < 0.01, ***p < 0.005 M‐PTH/PTHrP or PTH(1–34) versus TPTX‐vehicle. […] M‐PTH/PTHrP and PTH(1–34) each at a dose of 10 nmol/kg were i.v. administered, and blood samples were collected from the jugular vein in the presence of proteinase inhibitors (Aprotinin, Leupeptin, and EDTA) and the plasma samples were assessed for peptide concentration using a hPTHrP(1–34)‐targeted EIA for M‐PTH/PTHrP and an hPTH(1–34)‐targeted ELISA for PTH(1–34). […]
Background: In an ELISA, binding on a coated surface is turned into a signal by an enzyme label.

Series [2] deals with amino‐terminal ECD portion of the PTH receptor. Conditions: cited from earlier work. An excerpt: In this study, we systematically explored a series of hybrid molecules composed of PTH and PTHrP.
A short description of series [3]: Peptide solubility in aqueous buffers of neutral pH. It is filed as physicochemical. Particulars: lyophilized peptide reconstituted at 1.5 mg/cc in PBS pH 7.4 or 10‐mM acetic acid, 24 hours room temperature, centrifuged, supernatant by BCA protein assay; versus M‐PTH(1‐14)/PTHrP(15‐36).
The next series relates to TPTX rats. Particulars: orally available agonist; cited from earlier work. An excerpt:
The low solubility observed for M‐PTH/PTHrP and related analogs containing the C‐terminal PTHrP(15–36) sequence when prepared at high concentrations in aqueous neutral buffer led us to explore amino acid substitutions that would improve solubility yet preserve activity on the PTHR1. […] The resulting analog, [Ala^1,3,12,18,22,Gln^10,Arg^11,Trp^14,Lys^26]‐PTH(1‐14)/PTHrP(15–36), ...

Take `CC[C@H](C)[C@H](NC(=O)[C@H](CCC(=O)O)NC(=O)[C@H](CO)NC(=O)[C@@H](NC(=O)[C@@H](N)CO)C(C)C)C(=O)N[C@@H](CCC(N)=O)C(=O)N[C@@H](CC(C)C)C(=O)N[C@@H](CCSC)C(=O)N[C@@H](Cc1cnc[nH]1)C(=O)N[C@@H](CC(N)=O)C(=O)N[C@@H](CC(C)C)C(=O)NCC(=O)N[C@@H](CCCCN)C(=O)N[C@@H](Cc1cnc[nH]1)C(=O)N[C@@H](CC(C)C)C(=O)N[C@@H](CC(N)=O)C(=O)N[C@@H](CO)C(=O)N[C@@H](CCSC)C(=O)N[C@@H](CCC(=O)O)C(=O)N[C@@H](CCCN=C(N)N)C(=O)N[C@H](C(=O)N[C@@H](CCC(=O)O)C(=O)N[C@@H](Cc1c[nH]c2ccccc12)C(=O)N[C@@H](CC(C)C)C(=O)N[C@@H](CCCN=C(N)N)C(=O)N[C@@H](CCCCN)C(=O)N[C@@H](CCCCN)C(=O)N[C@@H](CC(C)C)C(=O)N[C@@H](CCC(N)=O)C(=O)N[C@@H](CC(=O)O)C(=O)N[C@H](C(=O)N[C@@H](Cc1cnc[nH]1)C(=O)N[C@@H](CC(N)=O)C(=O)N[C@@H](Cc1ccccc1)C(=O)O)C(C)C)C(C)C` [PTH(1‐34), reference compound]: in series [1], the “Time by which plasma concentration declined to the lowest detection level” value is not above 60 min.

As to “PTHrP(15–36): C‐terminal PTHrP fragment binding the receptor ECD (IQDLRRRFFLHHLIAEIHTAEI; Parathyroid hormone-related protein; UniProt P12272 51-72, looked up, fragment)”, the “Affinity for the ECD relative to the PTH(15–34) fragment” value in series [2] is “approximately twofold higher affinity”. Consider “AVAEIQLMHQRAKWIQDARRRAFLHKLIAEIHTAEI [LA‐PTH, [Ala^1,3,12,Gln^10,Arg^11,Trp^14]PTH(1‐14)/[Ala^18,22,Lys^26]PTHrP(15‐36)COOH]”, for which, in series [3], the “Peptide solubility in PBS relative to 10 mM acetic acid” value was “improved peptide solubility”. Regarding `Cc1cc(N2C(=O)NC(=O)C2(C)C)cc(C)c1CCS(=O)(=O)N1CCC2(CC1)N=C(c1ccc(OC(F)(F)F)cc1)NC2=O` [PCO371], the “Effect on sCa and sPi levels” value with TPTX rats was “restore sCa and lower sPi levels”.
